The text below walks through data of article PMC8864165, “Functional Effects of ARV-1502 Analogs Against Bacterial Hsp70 and Implications for Antimicrobial Activity” (Frontiers in Chemistry, 2022).

For assay [1], the target named is T1, S. aureus DnaK (Staphylococcus aureus, UniProt P99110).
T1 construct: His6-tag with TEV site ([…]) (N, cleaved yes); made in house; host or cells: E. coli (DE3) Rosetta pLysS
Description: Fluorescence polarization Kd with Cf-labeled peptide. In kind it is binding. (Polarisation of emitted light reports the rotation of a fluorescent probe.)
Description: (§3) Dissociation (Kd) and inhibitory constants (Ki) were measured using a previously reported protocol with slight modifications ([Krizsan et al., 2015]; [Kolano et al., 2020]). Briefly, black 384-well plates (flat bottom, Greiner Bio-One GmbH, Frickenhausen, Germany) were blocked with 0.5% (w/v) casein in phosphate buffered saline (PBS; 10 mmol/L Na2HPO4, 0.2 mmol/L KH2PO4, 137 mmol/L NaCl, 2.7 mmol/L KCl, pH 7.4) containing 0.05% (w/v) Tween® 20 (PBST) at 4°C overnight and washed three times with PBST. […] The 5 (6)-carboxyfluorescein-labeled peptide was added (20 μL/well, 40 nmol/L), incubated (2 h, 28°C, dark), and the fluorescence polarization recorded at an excitation wavelength (λ ex) of 485 nm and an emission wavelength (λem) of 535 nm using a […] ™ microplate reader (Beckman Coulter, Krefeld, Germany). Ki values were determined using a twofold dilution series of unlabeled peptide (20 µL/well) and DnaK (10 µL/well). The plate was incubated at 28°C in the dark for 90 min before the Cf-labeled peptides were added (10 µL/well, 80 nmol/L). After a second incubation (90 min, 28°C), the fluorescence polarization was recorded (λ ex = 485 nm, λ em = 535 nm). Dissociation and inhibitory constants were calculated by fitting the data with a variable slope parameter [y = min + (max- min)/(1+(x/Kd) ^−Hill slope)] using SigmaPlot 13 (Systat Software Inc., San Jose, CA, United States).

Assay [2] addresses T2, E. coli DnaK (Escherichia coli, UniProt P0A6Y8).
T2 construct: His6-tag with TEV site ([…]) (N, cleaved yes); made in house; host or cells: E. coli (DE3) Rosetta pLysS
The class given is binding. The protocol:
The plate was incubated (90 min, 28°C, dark) and Cf-ARV-1502 (80 nmol/L; 10 µL/well) added. […] Each peptide was screened in duplicate. Control samples either lacked the unlabeled peptide (maximum) or contained Cf-ARV-1502 in buffer (minimum).
The quality of the experimental set up was evaluated by the Z′ factor ([Zhang et al., 1999]) (Supplementary Table S2). […] The obtained FP-values were normalized to the FP-values determined for lead sequence ARV-1502.

The target of assay [3] is T1, S. aureus DnaK. Description: FP peptide binding screening against Cf-ARV-1502. To be noted: screening: DnaK 16 µmol/L, unlabeled peptide 35 µmol/L, duplicate, below 1 = better than ARV-1502.
For assay [4], the system named is E. coli JW0013 ∆dnaK. The settings on record: 25% MHB2, 37°C, 20 h.
Assay [5] concerns the target T3, E. coli DnaK/DnaJ/GrpE (Escherichia coli, UniProt P0A6Y8).
T3 construct: made in house; host or cells: E. coli (DE3) Rosetta pLysS
Briefly: Fluorescence polarization Kd with Cf-labeled peptide, full chaperone system. In kind it is binding. The settings on record: ratio of Kd.
Description: as §3

For assay [6], the target named is E. coli DnaJ (Escherichia coli, UniProt P08622). Description: Fluorescence polarization Kd with Cf-labeled peptide. To be noted: E. coli proteins, ratio of Kd.
Chain of E. coli DnaJ (P08622 whole entry): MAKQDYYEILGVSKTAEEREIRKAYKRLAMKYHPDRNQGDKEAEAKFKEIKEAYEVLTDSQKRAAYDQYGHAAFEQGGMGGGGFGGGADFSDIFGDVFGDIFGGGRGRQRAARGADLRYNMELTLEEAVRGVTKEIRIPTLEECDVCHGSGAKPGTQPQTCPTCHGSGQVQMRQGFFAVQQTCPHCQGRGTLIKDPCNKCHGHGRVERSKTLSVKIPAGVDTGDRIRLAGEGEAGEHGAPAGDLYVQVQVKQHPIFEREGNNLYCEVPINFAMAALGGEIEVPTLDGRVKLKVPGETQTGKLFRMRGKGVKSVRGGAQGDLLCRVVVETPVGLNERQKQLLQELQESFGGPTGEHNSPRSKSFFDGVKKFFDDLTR
Description: as §3
Assay [7] addresses E. coli GrpE (Escherichia coli, UniProt P09372). The description is as above. The settings on record: E. coli proteins, ratio of Kd.
Description: as §3
In assay [8] the target is S. aureus DnaJ (Staphylococcus aureus, UniProt P63971). Described as above. The settings on record: FP, * = upper plateau not reached, Kd only approximate.
Chain of S. aureus DnaJ (P63971 whole entry): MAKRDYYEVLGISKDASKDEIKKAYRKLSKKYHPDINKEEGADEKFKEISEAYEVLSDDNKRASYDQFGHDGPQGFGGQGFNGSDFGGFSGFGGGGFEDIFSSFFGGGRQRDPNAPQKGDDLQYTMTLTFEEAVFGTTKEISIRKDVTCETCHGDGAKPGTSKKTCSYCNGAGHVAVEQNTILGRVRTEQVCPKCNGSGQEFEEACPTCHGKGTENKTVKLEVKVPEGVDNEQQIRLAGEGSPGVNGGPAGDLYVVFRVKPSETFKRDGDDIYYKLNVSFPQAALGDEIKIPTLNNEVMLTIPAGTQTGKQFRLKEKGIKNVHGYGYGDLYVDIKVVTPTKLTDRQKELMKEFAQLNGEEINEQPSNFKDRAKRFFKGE
Description: as §3
In assay [9] the target is T2, E. coli DnaK. Description: ATPase activity assay (malachite green), DnaK alone. To be noted: ARV-1502 concentration series, plateau. In kind it is biochemical. The procedure: (§1) ATPase activity of E. coli and S. aureus chaperones was studied in the presence of an AMP using a 384-well plate colorimetric assay ([Chang et al., 2008]; [Zahn et al., 2013]). […] Each sample was prepared in triplicates on the same plate. The reaction was started by addition of ATP dissolved in assay buffer (5 µL, 4 mmol/L) and the plate centrifuged (500 × g, 2 min; Allegra™ 21R, Beckmann Coulter, Krefeld, Germany) before incubated (37°C, 2 h). The released phosphate was quantified using an external phosphate dilution series (10–200 µmol/L KH2PO4 in assay buffer) prepared on each plate and treated equally as the samples. The reaction was stopped by adding assay buffer (80 µL) to all samples except the phosphate dilution series. […] After 15 min, the absorbance was recorded at 620 nm on the […]™ microplate reader. […]
(§2) The impact of ARV-1502 and its analogs on the ATPase activity of DnaK was investigated in 384-well plates using the malachite green absorbance assay, which quantitates phosphate (Pi) cleaved from ATP confirming for example the ATPase activity of DnaK. The established assay allowed a robust and reproducible quantitation of phosphate from 10 to 150 µmol/L and was easy to handle (Supplementary Figure S3) providing the intended high-throughput screening. […]

Assay [10] concerns the target T1, S. aureus DnaK. The assay is described as above. The class given is biochemical. To be noted: ARV-1502 concentration series, plateau. The procedure: as §1, §2
The test system of assay [11] is E. coli BW25113. To be noted: 25% MHB2, 7.5 × 10^6 cfu/mL, 37°C, 20 h. The protocol:
Minimal inhibitory concentrations (MICs) were determined using a liquid broth micro dilution assay in sterile 96-well plates (polystyrene F-bottom, Greiner Bio-One GmbH) and a total volume of 100 μL per well. […] Overnight cultures of bacteria, i.e., E. coli BW25113 or S. aureus DSM 6247, grown in 25% MHB2 were diluted 30-fold in 25% MHB2. After an incubation period of 4 h (37°C, 200 rpm), cells were diluted to 1.5 × 10^7 cfu/mL, based on a McFarland test, and 50 μL were added to each well (final concentration of 7.5 × 10^6 cfu/mL per well). The plates were incubated (37°C, 20 h) and the optical density was determined at 595 nm using the […]™ microplate reader. The MIC was defined as the lowest peptide concentration preventing visible bacterial growth.

Converted amounts (≈) assume the structure as drawn. Square brackets hold non-standard residues; d marks the D form. Peptide text beside a SMILES is read from it. * marks the point of attachment. 5FAM = O=C1OC2(c3ccc(O)cc3Oc3cc(O)ccc32)c2ccc(C(=O)*)cc21; Ac6c = NC1(C(=O)O)CCCCC1

T2 sequence (P0A6Y8 whole entry): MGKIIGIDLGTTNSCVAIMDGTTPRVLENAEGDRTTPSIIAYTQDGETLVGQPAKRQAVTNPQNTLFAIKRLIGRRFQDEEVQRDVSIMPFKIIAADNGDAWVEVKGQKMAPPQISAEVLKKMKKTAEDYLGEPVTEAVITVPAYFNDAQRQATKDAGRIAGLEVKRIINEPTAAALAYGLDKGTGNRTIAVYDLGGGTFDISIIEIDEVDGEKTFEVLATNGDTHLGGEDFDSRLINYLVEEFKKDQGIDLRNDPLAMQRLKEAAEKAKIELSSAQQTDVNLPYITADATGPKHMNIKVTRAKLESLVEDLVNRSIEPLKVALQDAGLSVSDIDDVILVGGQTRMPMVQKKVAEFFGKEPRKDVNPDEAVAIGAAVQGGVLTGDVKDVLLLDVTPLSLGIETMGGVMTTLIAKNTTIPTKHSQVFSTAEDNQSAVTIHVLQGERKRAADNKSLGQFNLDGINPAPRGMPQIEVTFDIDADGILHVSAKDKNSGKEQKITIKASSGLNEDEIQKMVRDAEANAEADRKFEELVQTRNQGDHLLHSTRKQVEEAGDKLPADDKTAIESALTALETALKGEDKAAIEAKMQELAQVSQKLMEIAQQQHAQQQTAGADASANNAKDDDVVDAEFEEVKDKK
T1 sequence (P99110 whole entry): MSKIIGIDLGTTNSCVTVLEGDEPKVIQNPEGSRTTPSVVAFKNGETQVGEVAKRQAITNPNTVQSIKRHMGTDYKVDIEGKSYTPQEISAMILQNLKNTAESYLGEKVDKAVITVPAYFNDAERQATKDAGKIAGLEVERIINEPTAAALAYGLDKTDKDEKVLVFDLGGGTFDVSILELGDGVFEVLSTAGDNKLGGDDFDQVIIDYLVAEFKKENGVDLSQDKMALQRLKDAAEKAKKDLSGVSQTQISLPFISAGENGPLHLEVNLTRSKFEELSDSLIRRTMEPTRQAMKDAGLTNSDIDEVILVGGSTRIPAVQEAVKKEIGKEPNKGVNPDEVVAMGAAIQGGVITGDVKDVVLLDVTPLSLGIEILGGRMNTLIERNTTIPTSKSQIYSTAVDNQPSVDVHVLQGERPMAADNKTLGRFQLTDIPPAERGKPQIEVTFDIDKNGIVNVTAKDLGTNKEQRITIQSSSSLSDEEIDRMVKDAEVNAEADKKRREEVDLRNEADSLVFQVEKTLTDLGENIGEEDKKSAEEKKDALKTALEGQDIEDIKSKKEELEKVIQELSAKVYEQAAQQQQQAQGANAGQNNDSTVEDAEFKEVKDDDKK
Chain of E. coli GrpE (P09372 whole entry): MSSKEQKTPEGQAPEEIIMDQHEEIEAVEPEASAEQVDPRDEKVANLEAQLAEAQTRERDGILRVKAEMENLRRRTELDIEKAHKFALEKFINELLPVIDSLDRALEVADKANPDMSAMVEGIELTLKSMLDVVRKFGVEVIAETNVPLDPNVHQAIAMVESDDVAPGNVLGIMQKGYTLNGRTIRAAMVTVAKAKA
T3 sequence (P0A6Y8 whole entry): as the sequence (P0A6Y8 whole entry) above

As to `CC(C)C[C@H](NC(=O)[C@H](Cc1ccc(O)cc1)NC(=O)[C@@H]1CCCN1C(=O)[C@H](CCCNC(=N)N)NC(=O)[C@@H]1CCCN1C(=O)[C@H](Cc1ccccc1)NC(=O)[C@H](Cc1ccccc1)NC(=O)[C@@H]1CCCN1C(=O)[C@H](CCCNC(=N)N)NC(=O)C1(N)CCCCC1)C(=O)N1CCC[C@H]1C(=O)N[C@@H](CC(C)C)C(=O)N1CCC[C@H]1C(=O)N[C@@H](CCCNC(=N)N)C(=O)N1CCC[C@H]1C(=O)N1CCC[C@H]1C(=O)N[C@@H](CCCNC(=N)N)C(=O)N1CCC[C@H]1C(=O)N[C@H](C(=O)N[C@@H](CCCNC(=N)N)C(N)=O)C(C)C` [peptide 102] (H-[Ac6c]RPFFPRPYLPLPRPPRPVR-NH2), the “fold lower Kd than lead structure ARV-1502, S. aureus DnaK” value in assay [1] (ratio of Kd of Cf-labeled peptides) turned out to be 20 fold. Further, the “binding to E. coli DnaK, FP-value normalized to ARV-1502” value in assay [2] is on record as “best binders”. Moreover, in [3], the “binding to S. aureus DnaK, FP-value normalized to ARV-1502” value is recorded as “best binders”. Moreover, in assay [4], the “MIC, E. coli JW0013 ∆dnaK” value worked out at 32 µg/mL (≈ 12.9 µM).

For the compound `CC(C)C[C@H](NC(=O)[C@H](Cc1ccc(O)cc1)NC(=O)[C@@H]1CCCN1C(=O)[C@H](CCCNC(=N)N)NC(=O)[C@@H]1CCCN1C(=O)[C@H](CCCCN)NC(=O)[C@H](CC(=O)O)NC(=O)[C@@H]1CCCN1C(=O)[C@H](CCCNC(=N)N)NC(=O)C1(NC(=O)c2ccc3c(c2)C(=O)OC32c3ccc(O)cc3Oc3cc(O)ccc32)CCCCC1)C(=O)N1CCC[C@H]1C(=O)N[C@@H](CCCNC(=N)N)C(=O)N1CCC[C@H]1C(=O)N[C@@H](CCCNC(=N)N)C(=O)N1CCC[C@H]1C(=O)N1CCC[C@H]1C(=O)N[C@@H](CCCNC(=N)N)C(=O)N1CCC[C@H]1C(=O)N[C@H](C(=O)N[C@@H](CCCNC(=N)N)C(N)=O)C(C)C` [Cf-ARV-1502] (5FAM-[Ac6c]RPDKPRPYLPRPRPPRPVR-NH2), in [5], the “fold higher Kd for E. coli DnaK/DnaJ/GrpE-system than for DnaK alone” value was 15 fold. For the same compound, the “times weaker binding to S. aureus DnaK than to E. coli DnaK” value in [1] (ratio of Kd) is recorded as “around 100 times”. In addition, the “fold weaker binding to DnaJ than to DnaK” value in assay [6] is reported as roughly 150 fold. The “fold weaker binding to GrpE than to DnaK” value in assay [7] is on record as ~1,000 fold. Further, the “Kd, S. aureus DnaJ” value in assay [8] is on record as “no fit”.

Consider `CC(C)C[C@H](NC(=O)[C@H](Cc1ccc(O)cc1)NC(=O)[C@@H]1CCCN1C(=O)[C@H](CCCNC(=N)N)NC(=O)[C@@H]1CCCN1C(=O)[C@H](CCCCN)NC(=O)[C@H](CC(=O)O)NC(=O)[C@@H]1CCCN1C(=O)[C@H](CCCNC(=N)N)NC(=O)C1(N)CCCCC1)C(=O)N1CCC[C@H]1C(=O)N[C@@H](CCCNC(=N)N)C(=O)N1CCC[C@H]1C(=O)N[C@@H](CCCNC(=N)N)C(=O)N1CCC[C@H]1C(=O)N1CCC[C@H]1C(=O)N[C@@H](CCCNC(=N)N)C(=O)N1CCC[C@H]1C(=O)N[C@H](C(=O)N[C@@H](CCCNC(=N)N)C(N)=O)C(C)C` [ARV-1502] (H-[Ac6c]RPDKPRPYLPRPRPPRPVR-NH2), for which the “increase of intrinsic ATPase activity of E. coli DnaK” value in [9] is recorded as roughly 250%. Further, the “stimulation of intrinsic ATPase activity of S. aureus DnaK” value in assay [10] was 50%. The “MIC, E. coli JW0013 ∆dnaK” value in [4] fell in the range of 4 to 8 µg/mL.

Regarding `CC(C)C[C@H](NC(=O)[C@H](Cc1ccc(O)cc1)NC(=O)[C@@H]1CCCN1C(=O)[C@H](CCCNC(=N)N)NC(=O)[C@@H]1CCCN1C(=O)[C@H](CCCCN)NC(=O)[C@H](CCCCN)NC(=O)[C@@H]1CCCN1C(=O)[C@H](CCCNC(=N)N)NC(=O)C1(N)CCCCC1)C(=O)N1CCC[C@H]1C(=O)N[C@@H](CC(C)C)C(=O)N1CCC[C@H]1C(=O)N[C@@H](CCCNC(=N)N)C(=O)N1CCC[C@H]1C(=O)N1CCC[C@H]1C(=O)N[C@@H](CCCNC(=N)N)C(=O)N1CCC[C@H]1C(=O)N[C@H](C(=O)N[C@@H](CCCNC(=N)N)C(N)=O)C(C)C` [compound 45] (H-[Ac6c]RPKKPRPYLPLPRPPRPVR-NH2), the “DnaK binding in the screening, in words” value in [2] (FP screening, DnaK variant not stated at the place) is “best binding”. For the same compound, the “MIC, E. coli BW25113” value in assay [11] is on record as greater than 128 µg/mL. Also, the “MIC, E. coli JW0013 ∆dnaK” value in assay [4] is greater than 128 µg/mL.
